According to PMC5331433, “Ustiloxin G, a New Cyclopeptide Mycotoxin from Rice False Smut Balls” (Toxins, 2017):

What was measured:
[1] = system: BGC-823; test: Cytotoxicity, MTT assay, BGC-823; type: cell-based, human; conditions: gastric cancer cells, 24 h treatment, absorbance 570 nm, three replicates
Protocol: (§1) Cytotoxicity of the compounds were tested against human carcinoma cells using the microculture methyl-thiazolyl-tetrazolium (MTT) assay as described previously. Briefly, the cell lines were maintained in a humidified atmosphere containing 5% CO2 at 37 °C. For preparing working solution, 1 μmol of each purified ustiloxin was dissolved in 10 mL of ultrapure water to obtain the stock solution (100 μM), which was further diluted to a series of concentrations (50, 25, 12.5, 6.25, 3.125, 1, 0.1, 1 × 10^−2, 1 × 10^−3, 1 × 10^−4, 1 × 10^−5 μM) with ultrapure water. Normally, 200 μL of the cell suspensions (5 × 10^4 cells/mL) was plated in 96-well culture plates at 37 °C. After 12 h, 20 μL of working solution was added to each well respectively and cultured at 37 °C for 24 h. Then, MTT was dissolved in saline to 5 mg/mL, and 20 μL of this solution was added to each well. After 4 h, the medium was removed, and then 100 μL of DMSO was added to dissolve any formazan crystals formed. Absorbance was then determined at 570 nm. The cell lines of colon cancer cells (HCT-116), non-small-cell lung carcinoma cells (NCI-H1650), gastric cancer cells (BGC-823), and liver hepatocellular carcinoma cells (HepG2) were tested for all isolated compounds. In addition, lung adenocarcinoma cells (A549) were tested on ustiloxins A (2), B (3), and G (1), and melanoma cells (A375) were tested on ustiloxin G (1). Ultrapure water and taxol were used as the negative and positive controls, respectively. All experiments were performed with three replicates.

[2] = system: HepG2; test: Cytotoxicity, MTT assay, HepG2; type: cell-based, human; conditions: liver hepatocellular carcinoma cells, 24 h treatment, absorbance 570 nm, three replicates
Protocol: as §1

[3] = system: HCT116; test: Cytotoxicity, MTT assay, HCT116; type: cell-based, human; conditions: colon cancer cells, 24 h treatment, absorbance 570 nm, three replicates
Protocol: as §1

[4] = system: rice (Oryza sativa) seeds, germ; test: Inhibition of germ elongation of rice seeds; conditions: 48 h, 25 °C, dark, mean of triplicate ± SD
Protocol: (§2) Phytotoxicity of the compounds was evaluated by their inhibitory activities on the radicle and germ elongation of rice (Oryza sativa) seeds. Two varieties (Lijiang and Zhonghua 11) of the seeds, which were obtained from Prof. Zejian Guo (Department of Plant Pathology and collected in 2015, China Agricultural University) were used.
(§3) The bioassay was performed using the method described previously with some modifications. Briefly, five 3-day germinated rice seeds of each rice variety were sown onto each well of a 24-well plate, containing 200 μL of working solution. For preparing working solution, 1 mg of each purified compound was dissolved in 1 mL of ultrapure water to obtain the stock solution (1 mg/mL), which was further diluted to a series of concentrations (200, 100, 50, 20, and 10 μg/mL) with ultrapure water. The ultrapure water was used as the negative control, and glyphosate (N-(phosphonomethyl)glycine) at the same concentrations as the positive control. Plates were incubated in a moist chamber at 25 °C in the dark. The length of each radicle or germ was measured after treatment for 48 h. The inhibition of radicle or germ elongation was calculated as follows: Inhibition (%) = [(Lc − Lt)/Lc] × 100, where Lc is the radicle or germ length of the control group, and Lt is the length of the treated group.
(§4) All experiments were performed with three replicates, and the results were represented by their mean values and the standard deviations (SD). The data were carried out using analysis of variance (one-way ANOVA) to detect significant differences by PROC ANOVA of SAS version 8.2.

[5] = system: rice (Oryza sativa) seeds, radicle; test: Inhibition of radicle elongation of rice seeds; conditions: 48 h, 25 °C, dark, mean of triplicate ± SD
Protocol: as §2, §3, §4

[6] = system: NCI-H1650; test: Cytotoxicity, MTT assay, NCI-H1650; type: cell-based, human; conditions: non-small-cell lung carcinoma cells, 24 h treatment, absorbance 570 nm, three replicates
Protocol: as §1

Structure (SMILES) | Inhibition Ratio (%) Seed Germ Var. Lijiang ([4]; 10 µg/mL) | Inhibition Ratio (%) Seed Germ Var. Zhonghua 11 ([4]; 10 µg/mL) | Inhibition Ratio (%) Seed Germ Var. Lijiang ([4]; 20 µg/mL) | Inhibition Ratio (%) Seed Germ Var. Zhonghua 11 ([4]; 20 µg/mL) | Inhibition Ratio (%) Seed Germ Var. Lijiang ([4]; 50 µg/mL) | Inhibition Ratio (%) Seed Germ Var. Zhonghua 11 ([4]; 50 µg/mL) | Inhibition Ratio (%) Seed Germ Var. Lijiang ([4]; 100 µg/mL) | Inhibition Ratio (%) Seed Germ Var. Zhonghua 11 ([4]; 100 µg/mL) | Inhibition Ratio (%) Seed Germ Var. Lijiang ([4]; 200 µg/mL) | Inhibition Ratio (%) Seed Germ Var. Zhonghua 11 ([4]; 200 µg/mL) | Inhibition Ratio (%) Seed Radicle Var. Lijiang ([5]; 10 µg/mL) | Inhibition Ratio (%) Seed Radicle Var. Zhonghua 11 ([5]; 10 µg/mL) | Inhibition Ratio (%) Seed Radicle Var. Lijiang ([5]; 20 µg/mL) | Inhibition Ratio (%) Seed Radicle Var. Zhonghua 11 ([5]; 20 µg/mL) | Inhibition Ratio (%) Seed Radicle Var. Lijiang ([5]; 50 µg/mL) | Inhibition Ratio (%) Seed Radicle Var. Zhonghua 11 ([5]; 50 µg/mL) | Inhibition Ratio (%) Seed Radicle Var. Lijiang ([5]; 100 µg/mL) | Inhibition Ratio (%) Seed Radicle Var. Zhonghua 11 ([5]; 100 µg/mL) | Inhibition Ratio (%) Seed Radicle Var. Lijiang ([5]; 200 µg/mL) | Inhibition Ratio (%) Seed Radicle Var. Zhonghua 11 ([5]; 200 µg/mL) | other results
CC[C@@]1(C)Oc2cc(ccc2O)[C@@H](O)[C@H](NC)C(=O)N[C@@H](C(C)C)C(=O)N[C@@H]1C(=O)NCC(=O)O [Ustiloxin D (4), ustiloxin D] | 10.73% | 10.98% | 11.67% | 12.28% | 11.87% | 16.19% | 19.92% | 25.48% | 38.76 ± 5.68 e % | 31.86% | 4.43 ± 5.47 l % | 13.55% | 5.42 ± 3.45 l % | 23.31% | 11.89% | 41.47 ± 4.88 e % | 79.92 ± 6.26 c % | 90.79 ± 0.94 a % | 94.92 ± 0.79 a % | 93.90 ± 2.11 a % | IC50 [1]: > 50 µM; IC50 [2]: > 50 µM; IC50 [3]: > 50 µM; IC50 [6]: > 50 µM
O=C(O)CNCP(=O)(O)O [Glyphosate, N-(phosphonomethyl)glycine, reference compound] | 20.99% | 21.16% | 37.82 ± 4.05 e % | 29.21% | 59.32 ± 5.06 c % | 35.36% | 68.21% | 57.60 ± 3.44 a % | 71.36 ± 2.68 a % | 58.93 ± 6.04 a % | 36.84 ± 2.91 g % | 28.24% | 62.91 ± 5.03 d % | 41.52 ± 5.20 e % | 85.08% | 68.88 ± 3.85 c % | 93.64 ± 2.66 a % | 81.05 ± 2.04 b % | 95.61 ± 2.74 a % | 87.72% | 
CC[C@@]1(C)Oc2cc(ccc2O)[C@@H](O)[C@H](NC)C(=O)N[C@@H](C)C(=O)N[C@@H]1C(=O)NCC(=O)O [Ustiloxin F (5), ustiloxin F] | 7.07% | 1.89 ± 4.86 p % | 7.90 ± 4.3 k1% | 9.36% | 9.14% | 14.97% | 15.16% | 17.77% | 24.57% | 18.71% | 5.07 ± 4.95 l % | 0.75% | 8.97% | 9.59 ± 3.80 l % | 22.17% | 16.51% | 26.72 ± 5.84 h % | 23.78% | 38.25% | 36.83% | IC50 [1]: > 50 µM; IC50 [2]: > 50 µM; IC50 [3]: > 50 µM; IC50 [6]: > 50 µM
